Laboratory results from ChEMBL document CHEMBL1201862, “PubChem BioAssay data set” (2004).
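Protocol summary: plate cells (96-well), add compound at 5 concentrations, incubate 48 h, interpolate endpoints linearly. GI50 = concentration required for 50% inhibition of growth.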 The source made the active and inactive calls. Cut-off read from the data, not from the text of the source: active = GI50 up to about 1.1 µM and inactive = higher.

Columns and labels:
Assay in all cases: NCI anticancer screen, dose series, 48 h
UACC-62 = test system: UACC-62
SN12C = test system: SN12C
T47D = test system: T47D
RPMI-8226 = test system: RPMI-8226
786-0 = test system: 786-0
CCRF-CEM = test system: CCRF-CEM
IGROV-1 = test system: IGROV-1
Hs-578T = test system: Hs-578T
A549 = test system: A549
HCT-116 = test system: HCT-116
HCT-15 = test system: HCT-15
SNB-19 = test system: SNB-19
SW-620 = test system: SW-620
CAKI-1 = test system: CAKI-1
SF-539 = test system: SF-539
NCI-H460 = test system: NCI-H460
DU-145 = test system: DU-145
OVCAR-3 = test system: OVCAR-3
KM12 = test system: KM12
SK-MEL-28 = test system: SK-MEL-28

SMILES	GI50 (UACC-62)	GI50 (SN12C)	GI50 (T47D)	GI50 (RPMI-8226)	GI50 (786-0)	GI50 (CCRF-CEM)	GI50 (IGROV-1)	GI50 (Hs-578T)	GI50 (A549)	GI50 (HCT-116)	GI50 (HCT-15) [µM]	GI50 (SNB-19)	GI50 (SW-620)	GI50 (CAKI-1)	GI50 (SF-539)	GI50 (NCI-H460)	GI50 (DU-145)	GI50 (OVCAR-3)	GI50 (KM12)	GI50 (SK-MEL-28)
COc1ccc(P2(=S)Oc3ccc(C(c4ccccc4)(c4ccccc4)c4ccccc4)cc3O2)cc1 (stereo not given)	13.4 µM (inactive)	17.9 µM (inactive)	13.7 µM (inactive)	23 µM (inactive)	18 µM (inactive)	24.9 µM (inactive)	17.5 µM (inactive)	21.8 µM (inactive)	16.6 µM (inactive)	17.8 µM (inactive)	19.3	16 µM (inactive)	19.6 µM (inactive)	19.1 µM (inactive)	19.9 µM (inactive)	18.6 µM (inactive)	20.5 µM (inactive)	16.9 µM (inactive)	15 µM (inactive)	19.7 µM (inactive)
CCN(CC)C(=S)SS(=O)(=O)c1ccccc1[N+](=O)[O-]	35 µM (inactive)	22 µM (inactive)	28.1 µM (inactive)	15.2 µM (inactive)	18.6 µM (inactive)	2.51 µM (inactive)	0.504 µM (active)	31.1 µM (inactive)	14.7 µM (inactive)	18.2 µM (inactive)	57.9	> 53.7 µM (inactive)	20.9 µM (inactive)	22.3 µM (inactive)	19.9 µM (inactive)	25.1 µM (inactive)	27.3 µM (inactive)	22.2 µM (inactive)	> 35.4 µM (inactive)	18.7 µM (inactive)
O=S(=O)(c1cc(Cl)ccc1Cl)n1ccnc1	33.1 µM (inactive)	30.2 µM (inactive)	48.3 µM (inactive)	29 µM (inactive)	54.2 µM (inactive)	37.3 µM (inactive)	41.5 µM (inactive)	51.4 µM (inactive)	58.2 µM (inactive)	31.3 µM (inactive)	24.7	70.8 µM (inactive)	77.4 µM (inactive)	39.7 µM (inactive)	17.4 µM (inactive)	25.9 µM (inactive)	35.4 µM (inactive)	46.9 µM (inactive)	33.6 µM (inactive)	> 100 µM (inactive)
Cc1cc2nc(N3C(=O)/C(=C/c4ccc(Cl)cc4)N=C3c3ccccc3)sc2cc1C	30.8 µM (inactive)	24 µM (inactive)	27.5 µM (inactive)	35.9 µM (inactive)	29.4 µM (inactive)	18.1 µM (inactive)	14.6 µM (inactive)	26 µM (inactive)	30 µM (inactive)	18.4 µM (inactive)	29.1	42.5 µM (inactive)	27.6 µM (inactive)	26.4 µM (inactive)	18.7 µM (inactive)	23.7 µM (inactive)	50.8 µM (inactive)	15.7 µM (inactive)	16.3 µM (inactive)	55.7 µM (inactive)
